Assay results reported in patent publication US20080051387A1, “TETRAHYDROPYRIDO[3,4-D]PYRIMIDINES AND RELATED ANALOGUES” (priority 2006, published 2008).

Target: T1, chimeric human H3 receptor (Homo sapiens, UniProt Q9Y5N1)
T1 construct: rat Galpha-i2 (Gnai2, rat); made in house; host or cells: Sf9 insect cells (baculovirus); P2 membranes
Assay: Chimeric human H3 receptor screening GTP binding assay (inhibition of histamine-stimulated GTP-gamma35S binding, Example 8)
Format: biochemical
Conditions: symbol ! in Ki; test compound 4 μM, 1 μM histamine; read-out: percent inhibition of agonist-induced GTP-gammaS binding to H3
Summary of the method: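 Compound tested at 4 μM against 1 μM histamine stimulation; 125 pM GTP-gamma35S binding measured by filtration and scintillation after 60 min at room temperature. Membranes from Sf9 cells expressing chimeric human H3 plus G-protein subunits, in Tris pH 7.4/NaCl/MgCl2/GDP buffer; values are % inhibition after nonspecific subtraction.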

T1 sequence (Q9Y5N1 with tags, fused parts or gaps): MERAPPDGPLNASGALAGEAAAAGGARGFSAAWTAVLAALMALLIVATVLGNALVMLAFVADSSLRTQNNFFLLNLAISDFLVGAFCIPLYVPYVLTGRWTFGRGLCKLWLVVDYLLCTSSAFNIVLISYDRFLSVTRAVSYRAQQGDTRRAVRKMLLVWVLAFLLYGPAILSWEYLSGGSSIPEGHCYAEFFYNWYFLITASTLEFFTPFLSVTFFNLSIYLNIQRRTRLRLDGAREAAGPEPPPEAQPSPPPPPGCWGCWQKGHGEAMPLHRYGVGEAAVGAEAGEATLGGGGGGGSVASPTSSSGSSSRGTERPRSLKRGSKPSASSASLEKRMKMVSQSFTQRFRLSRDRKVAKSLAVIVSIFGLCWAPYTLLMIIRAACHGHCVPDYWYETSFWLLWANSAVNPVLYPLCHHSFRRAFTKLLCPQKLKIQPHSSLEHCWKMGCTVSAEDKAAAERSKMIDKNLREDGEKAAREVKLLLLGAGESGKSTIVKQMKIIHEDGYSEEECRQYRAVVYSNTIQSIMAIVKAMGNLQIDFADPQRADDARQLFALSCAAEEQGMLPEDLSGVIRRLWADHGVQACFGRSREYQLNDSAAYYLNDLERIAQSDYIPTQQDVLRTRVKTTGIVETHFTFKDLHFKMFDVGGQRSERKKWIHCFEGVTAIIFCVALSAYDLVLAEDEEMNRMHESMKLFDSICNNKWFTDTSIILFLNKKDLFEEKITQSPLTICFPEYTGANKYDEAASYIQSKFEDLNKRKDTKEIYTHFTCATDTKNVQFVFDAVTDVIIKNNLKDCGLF

Compound | inhibition at 4 µM [%]
CCCC(C)C(C)N1CCc2c(ncnc2N2CCN(C3CCC3)CC2)C1 (centres unmarked) [Compound 125, 4-(4-cyclobutylpiperazin-1-yl)-7-(1,2-dimethylpentyl)-5,6,7,8-tetrahydropyrido[3,4-d]pyrimidine] | ≥ 90
CC(C1CCCCC1)N1CCc2c(ncnc2N2CCN(C3CCC3)CC2)C1 (centres unmarked) [Compound 126, 4-(4-cyclobutylpiperazin-1-yl)-7-(1-cyclohexylethyl)-5,6,7,8-tetrahydropyrido[3,4-d]pyrimidine] | ≥ 90
CC(C1CCOC1)N1CCc2c(ncnc2N2CCN(C3CCC3)CC2)C1 (centres unmarked) [Compound 127, 4-(4-cyclobutylpiperazin-1-yl)-7-[1-(tetrahydrofuran-3-yl)ethyl]-5,6,7,8-tetrahydropyrido[3,4-d]pyrimidine] | ≥ 90
Cc1ccc(C(C)N2CCc3c(ncnc3N3CCN(C4CCC4)CC3)C2)cc1C (centres unmarked) [Compound 128, 4-(4-cyclobutylpiperazin-1-yl)-7-[1-(3,4-dimethylphenyl)ethyl]-5,6,7,8-tetrahydropyrido[3,4-d]pyrimidine] | ≥ 90
CC(c1ccc2c(c1)OCCO2)N1CCc2c(ncnc2N2CCN(C3CCC3)CC2)C1 (centres unmarked) [Compound 129, 4-(4-cyclobutylpiperazin-1-yl)-7-[1-(2,3-dihydro-1,4-benzodioxin-6-yl)ethyl]-5,6,7,8-tetrahydropyrido[3,4-d]pyrimidine] | ≥ 90
CC(c1ccc2ccccc2n1)N1CCc2c(ncnc2N2CCN(C3CCC3)CC2)C1 (centres unmarked) [Compound 130, 4-(4-cyclobutylpiperazin-1-yl)-7-(1-quinolin-2-ylethyl)-5,6,7,8-tetrahydropyrido[3,4-d]pyrimidine] | ≥ 90
COc1cccc(C(C)N2CCc3c(ncnc3N3CCN(C4CCC4)CC3)C2)c1OC (centres unmarked) [Compound 131, 4-(4-cyclobutylpiperazin-1-yl)-7-[1-(2,3-dimethoxyphenyl)ethyl]-5,6,7,8-tetrahydropyrido[3,4-d]pyrimidine] | ≥ 90
COc1ccc(OC)c(C(C)N2CCc3c(ncnc3N3CCN(C4CCC4)CC3)C2)c1 (centres unmarked) [Compound 132, 4-(4-cyclobutylpiperazin-1-yl)-7-[1-(2,5-dimethoxyphenyl)ethyl]-5,6,7,8-tetrahydropyrido[3,4-d]pyrimidine] | ≥ 90
CC(c1ccc(N2CCCC2)nc1)N1CCc2c(ncnc2N2CCN(C3CCC3)CC2)C1 (centres unmarked) [Compound 133, 4-(4-cyclobutylpiperazin-1-yl)-7-[1-(6-pyrrolidin-1-ylpyridin-3-yl)ethyl]-5,6,7,8-tetrahydropyrido[3,4-d]pyrimidine] | ≥ 90
Cc1c(F)cccc1C(C)N1CCc2c(ncnc2N2CCN(C3CCC3)CC2)C1 (centres unmarked) [Compound 134, 4-(4-cyclobutylpiperazin-1-yl)-7-[1-(3-fluoro-2-methylphenyl)ethyl]-5,6,7,8-tetrahydropyrido[3,4-d]pyrimidine] | ≥ 90
CC(c1ccccc1Cl)N1CCc2c(ncnc2N2CCN(C3CCC3)CC2)C1 (centres unmarked) [Compound 135, 7-[1-(2-chlorophenyl)ethyl]-4-(4-cyclobutylpiperazin-1-yl)-5,6,7,8-tetrahydropyrido[3,4-d]pyrimidine] | ≥ 90
CC(c1ccc(Cl)cc1Cl)N1CCc2c(ncnc2N2CCN(C3CCC3)CC2)C1 (centres unmarked) [Compound 136, 4-(4-cyclobutylpiperazin-1-yl)-7-[1-(2,4-dichlorophenyl)ethyl]-5,6,7,8-tetrahydropyrido[3,4-d]pyrimidine] | ≥ 90
CC(c1ccc(N2CCCC2)cc1)N1CCc2c(ncnc2N2CCN(C3CCC3)CC2)C1 (centres unmarked) [Compound 137, 4-(4-cyclobutylpiperazin-1-yl)-7-[1-(4-pyrrolidin-1-ylphenyl)ethyl]-5,6,7,8-tetrahydropyrido[3,4-d]pyrimidine] | ≥ 90
FC(F)(F)c1ccc(N2CCc3c(ncnc3N3CCN(C4CCC4)CC3)C2)nc1 [Compound 138, 4-(4-cyclobutylpiperazin-1-yl)-7-[5-(trifluoromethyl)pyridin-2-yl]-5,6,7,8-tetrahydropyrido[3,4-d]pyrimidine] | ≥ 90
COC(=O)c1ccc(CN2CCc3c(ncnc3N3CCN(C4CCC4)CC3)C2)cc1 [Compound 139, methyl 4-{[4-(4-cyclobutylpiperazin-1-yl)-5,8-dihydropyrido[3,4-d]pyrimidin-7(6H)-yl]methyl}benzoate] | ≥ 90
CNC(=O)c1ccc(CN2CCc3c(ncnc3N3CCN(C4CCC4)CC3)C2)cc1 [Compound 140, 4-{[4-(4-cyclobutylpiperazin-1-yl)-5,8-dihydropyrido[3,4-d]pyrimidin-7(6H)-yl]methyl}-N-methylbenzamide] | ≥ 90
c1ccc(CN2CCc3ncnc(N4CCN(C5CCCC5)CC4)c3C2)cc1 [Compound 141, 6-benzyl-4-(4-cyclopentylpiperazin-1-yl)-5,6,7,8-tetrahydropyrido[4,3-d]pyrimidine] | ≥ 90
Fc1ccccc1CN1CCc2ncnc(N3CCN(C4CCC4)CC3)c2CC1 [Compound 145, 4-(4-cyclobutylpiperazin-1-yl)-7-(2-fluorobenzyl)-6,7,8,9-tetrahydro-5H-pyrimido[4,5-d]azepine] | ≥ 90

Compound | inhibition at 4 µM [%]
Fc1cccc(CN2CCc3ncnc(N4CCN(C5CCC5)CC4)c3CC2)c1 [Compound 146, 4-(4-cyclobutylpiperazin-1-yl)-7-(3-fluorobenzyl)-6,7,8,9-tetrahydro-5H-pyrimido[4,5-d]azepine] | ≥ 90
Fc1ccc(CN2CCc3ncnc(N4CCN(C5CCC5)CC4)c3CC2)cc1 [Compound 147, 4-(4-cyclobutylpiperazin-1-yl)-7-(4-fluorobenzyl)-6,7,8,9-tetrahydro-5H-pyrimido[4,5-d]azepine] | ≥ 90
Cc1cccc(CN2CCc3ncnc(N4CCN(C5CCC5)CC4)c3CC2)c1 [Compound 148, 4-(4-cyclobutylpiperazin-1-yl)-7-(3-methylbenzyl)-6,7,8,9-tetrahydro-5H-pyrimido[4,5-d]azepine] | ≥ 90
Cc1ccc(CN2CCc3ncnc(N4CCN(C5CCC5)CC4)c3CC2)cc1 [Compound 149, 4-(4-cyclobutylpiperazin-1-yl)-7-(4-methylbenzyl)-6,7,8,9-tetrahydro-5H-pyrimido[4,5-d]azepine] | ≥ 90
Cn1ccnc1CN1CCc2ncnc(N3CCN(C4CCC4)CC3)c2CC1 [Compound 150, 4-(4-cyclobutylpiperazin-1-yl)-7-[(1-methyl-1H-imidazol-2-yl)methyl]-6,7,8,9-tetrahydro-5H-pyrimido[4,5-d]azepine] | ≥ 90
c1ccc2c(CN3CCc4ncnc(N5CCN(C6CCC6)CC5)c4CC3)ccnc2c1 [Compound 151, 4-(4-cyclobutylpiperazin-1-yl)-7-(quinolin-4-ylmethyl)-6,7,8,9-tetrahydro-5H-pyrimido[4,5-d]azepine] | ≥ 90
c1ccc2ncc(CN3CCc4ncnc(N5CCN(C6CCC6)CC5)c4CC3)cc2c1 [Compound 152, 4-(4-cyclobutylpiperazin-1-yl)-7-(quinolin-3-ylmethyl)-6,7,8,9-tetrahydro-5H-pyrimido[4,5-d]azepine] | ≥ 90
Cc1cccc(CN2CCc3ncnc(N4CCN(C5CCC5)CC4)c3CC2)n1 [Compound 153, 4-(4-cyclobutylpiperazin-1-yl)-7-[(6-methylpyridin-2-yl)methyl]-6,7,8,9-tetrahydro-5H-pyrimido[4,5-d]azepine] | ≥ 90
c1cncc(CN2CCc3ncnc(N4CCN(C5CCC5)CC4)c3CC2)c1 [Compound 154, 4-(4-cyclobutylpiperazin-1-yl)-7-(pyridin-3-ylmethyl)-6,7,8,9-tetrahydro-5H-pyrimido[4,5-d]azepine] | ≥ 90
c1nc2c(c(N3CCN(C4CCC4)CC3)n1)CCN(Cc1ccc(N3CCOCC3)nc1)CC2 [Compound 155, 4-(4-cyclobutylpiperazin-1-yl)-7-[(6-morpholin-4-ylpyridin-3-yl)methyl]-6,7,8,9-tetrahydro-5H-pyrimido[4,5-d]azepine] | ≥ 90
Cc1cc(CN2CCc3ncnc(N4CCN(C5CCC5)CC4)c3CC2)n(C)n1 [Compound 156, 4-(4-cyclobutylpiperazin-1-yl)-7-[(1,3-dimethyl-1H-pyrazol-5-yl)methyl]-6,7,8,9-tetrahydro-5H-pyrimido[4,5-d]azepine] | ≥ 90
COc1ccccc1CN1CCc2ncnc(N3CCN(C4CCC4)CC3)c2CC1 [Compound 157, 4-(4-cyclobutylpiperazin-1-yl)-7-(2-methoxybenzyl)-6,7,8,9-tetrahydro-5H-pyrimido[4,5-d]azepine] | ≥ 90
COc1ccc(CN2CCc3ncnc(N4CCN(C5CCC5)CC4)c3CC2)c(OC)c1 [Compound 158, 4-(4-cyclobutylpiperazin-1-yl)-7-(2,4-dimethoxybenzyl)-6,7,8,9-tetrahydro-5H-pyrimido[4,5-d]azepine] | ≥ 90
CC(C)c1ccc(CN2CCc3ncnc(N4CCN(C5CCC5)CC4)c3CC2)cc1 [Compound 159, 4-(4-cyclobutylpiperazin-1-yl)-7-(4-isopropylbenzyl)-6,7,8,9-tetrahydro-5H-pyrimido[4,5-d]azepine] | ≥ 90
CCN1CCc2ncnc(N3CCN(C4CCC4)CC3)c2CC1 [Compound 160, 4-(4-cyclobutylpiperazin-1-yl)-7-ethyl-6,7,8,9-tetrahydro-5H-pyrimido[4,5-d]azepine] | ≥ 90
CC(C)CCN1CCc2ncnc(N3CCN(C4CCC4)CC3)c2CC1 [Compound 161, 4-(4-cyclobutylpiperazin-1-yl)-7-(3-methylbutyl)-6,7,8,9-tetrahydro-5H-pyrimido[4,5-d]azepine] | ≥ 90
CCCN1CCc2ncnc(N3CCN(C4CCC4)CC3)c2CC1 [Compound 162, 4-(4-cyclobutylpiperazin-1-yl)-7-propyl-6,7,8,9-tetrahydro-5H-pyrimido[4,5-d]azepine] | ≥ 90
